A short description of this data set: Human HepG2 cell viability assay in 384 well format. Further details: dose 125 nL, time 70.5 hour; cytotoxicity at 70.5 h: concentration not given beside the values. To be noted: HepG2 cells, read-out: Inhibition. The class given is toxicity, cell-based.
Turning to `CN(Cc1cccnc1)CC1CC12CCCC2` (stereo not drawn), the cytotoxicity at 70.5 h is -5.63%.

With `Cc1nn(CCC(=O)N2CCCC(OCc3cccnc3)C2)c(C)c1C` (stereo not drawn), the cytotoxicity at 70.5 h was -6.47%.

For `Cn1nnnc1SCCNC(=O)CC1CCc2ccccc21` (stereo not drawn), the cytotoxicity at 70.5 h was -1.31%.

For `COc1cccc(CC(C)NCC(=O)Nc2ccccc2C)c1` (stereo not drawn), the cytotoxicity at 70.5 h is -0.681%.

Consider `O=C(NCC1CCCO1)c1cc(COc2ccccc2F)[nH]n1` (stereo not drawn), for which the cytotoxicity at 70.5 h was -3.44%.

Consider `CNc1nc(C(=O)N2CCCCC2c2ccc(CN(C)C)cc2)cs1` (stereo not drawn), for which the cytotoxicity at 70.5 h stood at 1.16%.

On to `O=C(NCc1n[nH]c2c1CCCCC2)c1cnn2c1CCCC2`, for which the cytotoxicity at 70.5 h is -12.2%.

Turning to `Cc1ccc(C)c(N2CCN(CC3(O)CCNC3)CC2)c1` (stereo not drawn), the cytotoxicity at 70.5 h was -0.198%.

As for `Cc1nc(CCCNC(=O)C2CC(=O)N(C3CCCC3)C2)sc1C` (stereo not drawn), the cytotoxicity at 70.5 h is -9.24%.

With `COc1cc2c(cc1CN1C[C@@H](CN3CCOCC3)[C@@H](CO)C1)CCC2`, the cytotoxicity at 70.5 h is -2.99%.

Turning to `CC(C)c1nccc(CN2CCCC(O)(CN3CCCC3)C2)n1` (stereo not drawn), the cytotoxicity at 70.5 h was -0.735%.

Regarding `O=C(c1ccc(S(=O)(=O)NCCc2ccccn2)cc1)N1CCCC1`, the cytotoxicity at 70.5 h was -14.8%.

As to `CSCc1noc(CN2CCC3(CC2)CC(=O)N(CC(C)C)C3)n1`, the cytotoxicity at 70.5 h is -2.72%.

For `CC[C@H](N)C(=O)Nc1nn(CC(F)(F)F)c2cc(OC(C)C)ccc12`, the cytotoxicity at 70.5 h was -14.2%.

For `O=C1CSc2ccccc2N1Cc1noc(C2CCCO2)n1` (stereo not drawn), the cytotoxicity at 70.5 h is -5.67%.

With `CCc1cc(CN(C)C(=O)CN2CC(Cc3ccccc3)CC2=O)on1` (stereo not drawn), the cytotoxicity at 70.5 h was 2.31%.

For `CN(C(=O)c1cnc(N2CCOCC2)nc1)C1Cc2ccccc2C1`, the cytotoxicity at 70.5 h is -12.4%.

As to `COc1cc(CN2CCCC2)ccc1OC12CCCN(CC1)C2` (stereo not drawn), the cytotoxicity at 70.5 h is -18.9%.

Regarding `Cc1nc(CN2CCCC(CCc3ccccc3C(F)(F)F)C2)co1` (stereo not drawn), the cytotoxicity at 70.5 h came to 22.6%.

Take `Cc1nc(CCNC(=O)c2cc(C(C)C)nn2C)sc1C`: the cytotoxicity at 70.5 h was -10.1%.

As to `CCN(CCn1cccn1)C(=O)CN1C(=O)OC[C@@H]1C(C)C`, the cytotoxicity at 70.5 h is -3.13%.

With `Cc1nc(CC2CCN(C(=O)C(c3ccccc3C)N(C)C)CC2)no1` (stereo not drawn), the cytotoxicity at 70.5 h was -13.1%.

As to `CN(Cc1ccc(C(=O)NCC2COCCO2)c(=O)[nH]1)CC(C)(C)C` (stereo not drawn), the cytotoxicity at 70.5 h was 6.27%.

On to `CC1=C(C(=O)N(C)Cc2n[nH]c3c2CCCCC3)C(C)NC(=O)N1` (stereo not drawn), for which the cytotoxicity at 70.5 h turned out to be 31%.

Turning to `Cc1ccc(N2CCC(c3nccn3Cc3cscn3)CC2)nn1`, the cytotoxicity at 70.5 h is 0.241%.

Turning to `CCNC(=O)[C@@H]1C[C@@H](NC(=O)c2cnc[nH]c2=O)CN1Cc1ccsc1`, the cytotoxicity at 70.5 h was -2.36%.

As for `CC(=O)N1CCN(C(=O)Nc2ccccc2Cl)[C@H]2CS(=O)(=O)C[C@H]21`, the cytotoxicity at 70.5 h was -16%.

For the compound `CCc1nccn1CCC(=O)N1CC(=O)N(c2ccccc2C)CC1C` (stereo not drawn), the cytotoxicity at 70.5 h is -7.9%.

Take `O=C(NCc1nc(NC2CCCC2)c2cc(Cl)ccc2n1)c1ccoc1`: the cytotoxicity at 70.5 h was determined as 5.65%.

On to `COc1ccc(-c2nccn2C[C@@H]2CCCN3CCCC[C@H]23)cc1`, for which the cytotoxicity at 70.5 h was determined as 1.3%.

In the case of `CC(C)c1cc(C(=O)N2CCCC2c2nc(-c3ccccc3)no2)[nH]n1` (stereo not drawn), the cytotoxicity at 70.5 h is -0.676%.

As to `Cc1nc[nH]c1-c1nccn1CCN1CCCOC1=O`, the cytotoxicity at 70.5 h was -5.03%.

For `COc1cc(OC)nc(N2CCCC(c3nccn3CCN(C)C)C2)n1` (stereo not drawn), the cytotoxicity at 70.5 h amounted to 30.4%.

With `CCCN1CCN(Cc2cccc(OC(C)C)c2)[C@H]2CS(=O)(=O)C[C@H]21`, the cytotoxicity at 70.5 h turned out to be 12.5%.

For the compound `CNc1ncccc1C(=O)N1CCN(Cc2ccc(C)cc2)C(=O)C1C` (stereo not drawn), the cytotoxicity at 70.5 h is -13.8%.

As for `Cc1nc2c(c(=O)n1C)CCN(C(=O)Cn1cccc1)CC2`, the cytotoxicity at 70.5 h was -4.24%.

Turning to `CCCc1nnc(N2CCC(N3CCN(CCO)CC3)CC2)o1`, the cytotoxicity at 70.5 h is -5.69%.

For `CN(Cc1cnn(C)c1)Cc1nc(CCc2ccccc2)no1`, the cytotoxicity at 70.5 h was -4.56%.

In the case of `CN(Cc1ccc(-n2cccn2)cc1)C(=O)CCC(F)(F)F`, the cytotoxicity at 70.5 h was found to be 26.9%.

As for `CC(C)[C@H]1CN(CCCO)C[C@@H]1NC(=O)CCS(C)(=O)=O`, the cytotoxicity at 70.5 h was -3.16%.

With `CCCn1cc(C(=O)NC(CC(=O)O)c2ccccc2F)c(C)n1` (stereo not drawn), the cytotoxicity at 70.5 h was determined as 6.87%.

Consider `CCC(CC)n1nc(C)cc1NC(=O)CC1CCOCC1`, for which the cytotoxicity at 70.5 h is -8.16%.

As for `CSCc1nc(CNC(=O)C2CCCN(C(=O)N(C)C)C2)cs1` (stereo not drawn), the cytotoxicity at 70.5 h was -7.03%.

Consider `Cc1cccc(C)c1OC1CN(Cc2cnc(-c3ccco3)nc2)C1`, for which the cytotoxicity at 70.5 h was -6.4%.

As for `C[C@@H]1CN(C(=O)C2CCS(=O)(=O)CC2)C[C@]1(C)O`, the cytotoxicity at 70.5 h is -8.15%.

As for `CSCCCN(CCN1CCOCC1)Cc1ccco1`, the cytotoxicity at 70.5 h was -9.79%.

Take `CO[C@H]1CN(C(=O)c2ccc(-c3ccccc3)[nH]2)CC[C@H]1N`: the cytotoxicity at 70.5 h was -10.1%.

Take `CSCCNC(=O)C1CCC(=O)N(C2CCCC2)C1` (stereo not drawn): the cytotoxicity at 70.5 h came out at 0.162%.

As for `COc1cc(C)ccc1OCc1nc(C(=O)N2CCCNC(=O)C2)co1`, the cytotoxicity at 70.5 h was -5.88%.

`NCCc1nc(N(Cc2nccs2)C2CC2)c2ccccc2n1`: the cytotoxicity at 70.5 h is 37.2%.

Consider `Cc1c(-c2ccccc2)ncn1CCCNc1cccnc1`, for which the cytotoxicity at 70.5 h is -4.84%.

Consider `Cn1nc(C(C)(C)C)cc1NC(=O)Cn1ccnc1`, for which the cytotoxicity at 70.5 h was -10.5%.

`CC(C)c1cncnc1-c1cc(F)cc2c1OC(CN)C2` (stereo not drawn): the cytotoxicity at 70.5 h is -1.8%.

As for `CC(C)c1cc(C(=O)N(C)C(C)c2nccs2)no1` (stereo not drawn), the cytotoxicity at 70.5 h is -7.34%.

As to `O=C(CN1CCc2onc(-c3ccccc3F)c2C1)NC1CC1`, the cytotoxicity at 70.5 h was -9.25%.

As for `COc1cc(F)ccc1C(C(=O)O)N1CCN(C2CCCCC2)CC1` (stereo not drawn), the cytotoxicity at 70.5 h is -4.9%.

Take `NC(=O)CN1CCCC(C(=O)N2CCC(O)(c3ccccc3)CC2)C1` (stereo not drawn): the cytotoxicity at 70.5 h was determined as 31%.

In the case of `CC(C)(NC(=O)c1coc(COc2cccc(F)c2)n1)C(N)=O`, the cytotoxicity at 70.5 h was -8.32%.

For the compound `CC(C)N1CCC(CC(=O)NCC2OCCc3ccccc32)CC1` (stereo not drawn), the cytotoxicity at 70.5 h is -9.87%.

Turning to `COC(=O)C(CO)NC(=O)c1cn(Cc2ccccc2F)nn1` (stereo not drawn), the cytotoxicity at 70.5 h is -8.74%.

Regarding `Cc1ccc2nc(C(=O)N3CCC(CCn4cccn4)CC3)cn2c1`, the cytotoxicity at 70.5 h came out at 16%.

Turning to `CC[C@@]1(O)CCN(C(=O)CCSCc2ccc(F)cc2)C[C@H]1O`, the cytotoxicity at 70.5 h was 14.3%.

Consider `CCc1noc(C2CCCCN2C(=O)c2ccccc2)n1` (stereo not drawn), for which the cytotoxicity at 70.5 h is -1.29%.

Consider `COc1ccc2c(c1)OCC(CNC(=O)NC(C)(C)C)C2` (stereo not drawn), for which the cytotoxicity at 70.5 h was -0.00962%.

With `COc1cc(Cl)cc(CN2CCCC(N3CCCC3)C2)c1OC` (stereo not drawn), the cytotoxicity at 70.5 h was -14.7%.

For `O=C(Cc1ccsc1)N1CCC(c2ccncc2)CC1`, the cytotoxicity at 70.5 h is -13.6%.

`CN(C)CCO[C@H]1C[C@@H](O)C12CCN(c1cnccn1)CC2`: the cytotoxicity at 70.5 h was -6.05%.

Regarding `CSc1ncc(CNC(C)c2cnn(-c3ccccc3)c2C)cn1` (stereo not drawn), the cytotoxicity at 70.5 h was -2.21%.

For `CC(C)[C@@H]1CN(CCOc2ccccc2)C[C@H]1NS(=O)(=O)N(C)C`, the cytotoxicity at 70.5 h is -5.28%.

Turning to `CN(C)C(=O)N1CCN(CCCOc2ccccc2)[C@H]2CS(=O)(=O)C[C@H]21`, the cytotoxicity at 70.5 h is -5.64%.

Regarding `CCNc1ncc(C(=O)NCC2OCCc3ccccc32)cn1` (stereo not drawn), the cytotoxicity at 70.5 h was -3.21%.

As for `O=C1Nc2ccccc2NC12CCN(c1cccc(C(F)(F)F)n1)CC2`, the cytotoxicity at 70.5 h was 52.4%.

Turning to `CCc1cnc(NCc2ccccc2Cn2cccn2)nc1`, the cytotoxicity at 70.5 h came to 0.071%.

On to `CSCCCN1C[C@H](NC(=O)c2ccc(CO)cc2)[C@@H](C2CC2)C1`, for which the cytotoxicity at 70.5 h is -9.41%.

`CSCC(=O)N1CCc2c(cnc(C)c2-c2noc(-c3cscn3)n2)C1`: the cytotoxicity at 70.5 h is -15.6%.

Regarding `COc1ccc(-c2cc(CNc3ncnc4c3CCNCC4)no2)cc1`, the cytotoxicity at 70.5 h was 23.4%.

`c1nc(NCc2cc3n(n2)CCN(C2CCCCC2)C3)c2nc[nH]c2n1`: the cytotoxicity at 70.5 h was -11.7%.

For `Cn1cc(C(=O)N2CCCCC2CCc2ccc(O)cc2)cn1` (stereo not drawn), the cytotoxicity at 70.5 h is -10.3%.

Regarding `COCCCn1cnnc1CNc1cc(C)nc2ccnn12`, the cytotoxicity at 70.5 h was -4.02%.

In the case of `CC(C)CCN(C)Cc1ccccc1-c1nc(C(C)C)cc(=O)[nH]1`, the cytotoxicity at 70.5 h came out at 0.496%.

As to `CSCC(=O)N1C[C@H]2CC[C@@H]1CN(C1Cc3ccccc3C1)C2`, the cytotoxicity at 70.5 h was -9.76%.

Take `COC[C@]1(O)CCN(Cc2ccc(N(C)C)nc2)CC1(C)C`: the cytotoxicity at 70.5 h was -17.9%.

As to `CN1CCC(N(Cc2ccncc2)C(=O)COCC2CCCCO2)CC1` (stereo not drawn), the cytotoxicity at 70.5 h was -1.65%.

Regarding `Cc1ccccc1CN1C[C@@H]2CC[C@H](C1)N(CC1CCC1)C2=O`, the cytotoxicity at 70.5 h is -4.63%.

Regarding `CCC(=O)N1CCCC1C(=O)N1CCC(Cc2ccc(F)cc2)CC1` (stereo not drawn), the cytotoxicity at 70.5 h is -9.21%.

Regarding `CS(=O)(=O)NCCC(=O)N1CCC(Cc2ccc(CO)cc2)C1` (stereo not drawn), the cytotoxicity at 70.5 h is 1.14%.

In the case of `O=C(N[C@@H]1CCN(c2nccc3ccccc23)C[C@H]1O)c1cnccn1`, the cytotoxicity at 70.5 h came to 9.52%.

Turning to `CC(C)(CO)Nc1ccc(-c2nc(-c3ccccc3F)no2)cn1`, the cytotoxicity at 70.5 h was -5.95%.

Consider `COCC[C@]1(O)CCN(S(=O)(=O)c2ccc(C)cc2OC)C[C@H]1C`, for which the cytotoxicity at 70.5 h is -4.64%.

Consider `COc1ccc(OC)c2c(C)cc(N(C)Cc3cc(C)on3)nc12`, for which the cytotoxicity at 70.5 h amounted to 23.1%.

In the case of `CC(C)Cn1cncc1CNC(=O)c1cccc(CC2CCNCC2)c1`, the cytotoxicity at 70.5 h came out at 8.07%.

Take `Cc1ncc(CNC2CC(=O)N(CCc3ccc(F)cc3)C2)n1C` (stereo not drawn): the cytotoxicity at 70.5 h is -10.7%.

For `Cc1nnsc1C(=O)NCc1cccnc1N1CCc2ccccc2C1`, the cytotoxicity at 70.5 h turned out to be 16.7%.

Turning to `CCN1CCCC(c2c(-c3ccccc3)ncn2CC(N)=O)C1` (stereo not drawn), the cytotoxicity at 70.5 h was -0.352%.

For the compound `CCCc1cc(NC2CCN(Cc3ccccn3)CC2)n2nccc2n1`, the cytotoxicity at 70.5 h was -4.87%.

For `C[C@@H]1CN(C2(C(=O)N3CCNCC3)Cc3ccccc3C2)C[C@H](C)O1`, the cytotoxicity at 70.5 h was -2.17%.

Regarding `CC(C)c1noc(-c2ccc(NCC3CCCOC3)nc2)n1` (stereo not drawn), the cytotoxicity at 70.5 h is -12.4%.

Regarding `COc1ccc(CC2CN(C3CCSCC3)CCO2)cc1` (stereo not drawn), the cytotoxicity at 70.5 h is 1.2%.
